pIC50: −log10 of the molar value. Where a SMILES comes first, the peptide text is derived from it. [ ]: non-standard residue; d: D form. hLeu = CC(C)CC[C@H](N)C(=O)O
Target: T1, Interleukin-23 receptor (Homo sapiens, UniProt Q5VWK5)
T1 sequence (Q5VWK5 whole entry): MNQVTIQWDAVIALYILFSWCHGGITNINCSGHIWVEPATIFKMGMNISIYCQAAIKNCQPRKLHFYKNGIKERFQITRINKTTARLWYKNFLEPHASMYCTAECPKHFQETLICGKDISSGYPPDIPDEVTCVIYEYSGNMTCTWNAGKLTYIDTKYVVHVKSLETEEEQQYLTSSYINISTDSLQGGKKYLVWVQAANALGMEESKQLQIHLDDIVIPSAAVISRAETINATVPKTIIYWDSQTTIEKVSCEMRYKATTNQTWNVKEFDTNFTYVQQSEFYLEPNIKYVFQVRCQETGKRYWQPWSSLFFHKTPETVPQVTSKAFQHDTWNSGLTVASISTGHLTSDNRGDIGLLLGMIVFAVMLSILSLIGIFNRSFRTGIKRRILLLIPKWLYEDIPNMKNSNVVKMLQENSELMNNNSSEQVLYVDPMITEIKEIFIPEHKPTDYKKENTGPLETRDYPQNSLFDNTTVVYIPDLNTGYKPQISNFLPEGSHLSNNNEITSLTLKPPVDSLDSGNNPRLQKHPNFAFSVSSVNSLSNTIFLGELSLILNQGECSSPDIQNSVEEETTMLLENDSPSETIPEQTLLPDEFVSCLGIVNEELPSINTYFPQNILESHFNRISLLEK
Assay: Inhibition of interleukin-23 binding to human interleukin-23 receptor incubated for 2 hrs by competitive binding ELISA

For `CC(=O)N[C@H](C(=O)N[C@@](C)(CCCN)C(=O)N[C@H](C(=O)N[C@@H](Cc1c[nH]c2ccccc12)C(=O)N[C@@H](CCC(N)=O)C(=O)N[C@H](C(=O)N[C@@H](Cc1ccc(OCCN)cc1)C(=O)N[C@@H](Cc1ccc2ccccc2c1)C(=O)N[C@@](C)(CCCCN)C(=O)N[C@@H](CCC(=O)O)C(=O)N[C@@H](CC(N)=O)C(=O)NCC(N)=O)C(C)(C)S)[C@@H](C)O)C(C)(C)S`, the pIC50 was 6.00 to 7.00.
In the case of `CC(=O)NC1CCC/C=C\CC(C(=O)N[C@@H](Cc2ccc(O)cc2)C(=O)N[C@@H](Cc2c[nH]c3ccccc23)C(=O)N[C@@H](CCCNC(=N)N)C(=O)N[C@@H](CCCCN)C(=O)N[C@@H](Cc2ccccc2)C(=O)NCC(=O)NCCOCC(=O)N[C@H](CCCCN)C(N)=O)NC(=O)[C@H](CCC(N)=O)NC(=O)[C@H](Cc2c[nH]c3ccccc23)NC(=O)[C@H]([C@@H](C)O)NC(=O)[C@H](CCCNC(=N)N)NC1=O` (stereo partly drawn), the pIC50 was 6.00 to 7.00.
Compound `CC(=O)N[C@@H](CS)C(=O)N[C@@H](CCC(N)=O)C(=O)N[C@H](C(=O)N[C@@H](Cc1c[nH]c2ccccc12)C(=O)N[C@H](C(=O)N[C@@H](CS)C(=O)N[C@@H](Cc1ccc(O)cc1)C(=O)N[C@@H](Cc1c[nH]c2ccccc12)C(=O)N[C@@H](CCCNC(=N)N)C(=O)N[C@@H](CCC(=O)O)C(=O)N[C@@H](CC(N)=O)C(=O)NCC(=O)NCCOCC(=O)N[C@H](CCCCN)C(N)=O)C(C)C)[C@@H](C)O` has a pIC50 of over 6.30.
Compound `CSCC[C@H](NC(=O)[C@H](CS)NC(=O)[C@H](Cc1cnc[nH]1)NC(=O)[C@@H](NC(=O)[C@H](CO)NC(=O)CNC(C)=O)C(C)C)C(=O)N[C@H](C(=O)N[C@@H](Cc1c[nH]c2ccccc12)C(=O)N[C@@H](CCC(=O)O)C(=O)N[C@@H](CS)C(=O)N[C@@H](Cc1ccc(O)cc1)C(=O)N[C@@H](Cc1c[nH]c2ccccc12)C(=O)N[C@@H](Cc1cnc[nH]1)C(=O)N[C@H](C(=O)N[C@@H](Cc1ccccc1)C(=O)NCC(N)=O)[C@@H](C)O)[C@@H](C)O` (Ac-GSVHCMTWECYWHTFG-NH2) has a pIC50 of 6.00 to 6.30.
`CC(=O)N[C@H](C(=O)N[C@@H](C)C(=O)N[C@@H](CC(=O)O)C(=O)N[C@@H](Cc1c[nH]c2ccccc12)C(=O)N[C@H](C(=O)N[C@@H](CS)C(=O)N[C@@H](Cc1ccc(O)cc1)C(=O)N[C@@H](Cc1c[nH]c2ccccc12)C(=O)N[C@@H](Cc1cnc[nH]1)C(=O)N[C@H](C(=O)N[C@@H](Cc1ccccc1)C(=O)NCC(N)=O)[C@@H](C)O)C(C)C)C(C)(C)S` was tested, and the pIC50 was 5.00 to 6.00.
`CSCC[C@H](NC(=O)[C@@H](N)CS)C(=O)N[C@H](C(=O)N[C@@H](Cc1c[nH]c2ccccc12)C(=O)N[C@@H](CCC(N)=O)C(=O)N[C@@H](CS)C(=O)N[C@@H](Cc1ccc(O)cc1)C(=O)N[C@@H](Cc1c[nH]c2ccccc12)C(=O)N[C@@H](CC(C)C)C(=O)N[C@@H](Cc1ccc(O)cc1)C(=O)NCC(=O)N[C@@H](CCCNC(=N)N)C(=O)NCCOCC(=O)N[C@H](CCCCN)C(N)=O)[C@@H](C)O` was tested, and the pIC50 was under 4.52.
Work on `CC(=O)N[C@@H](CS)C(=O)N[C@@H](C)C(=O)N[C@@H](CC(=O)O)C(=O)N[C@@H](Cc1c[nH]c2ccccc12)C(=O)N[C@H](C(=O)N[C@@H](CS)C(=O)N[C@@H](Cc1ccc(O)cc1)C(=O)N[C@@H](Cc1c[nH]c2ccccc12)C(=O)N[C@@H](Cc1cnc[nH]1)C(=O)N[C@H](C(=O)N[C@@H](Cc1ccccc1)C(=O)NCC(=O)NCCOCC(=O)N[C@H](CCCCNC(=O)COCC(=O)NCCCC[C@@H](NC(=O)COCCNC(=O)CNC(=O)[C@H](Cc1ccccc1)NC(=O)[C@@H](NC(=O)[C@H](Cc1cnc[nH]1)NC(=O)[C@H](Cc1c[nH]c2ccccc12)NC(=O)[C@H](Cc1ccc(O)cc1)NC(=O)[C@H](CS)NC(=O)[C@@H](NC(=O)[C@H](Cc1c[nH]c2ccccc12)NC(=O)[C@H](CC(=O)O)NC(=O)[C@H](C)NC(=O)[C@H](CS)NC(C)=O)C(C)C)[C@@H](C)O)C(=O)O)C(=O)O)[C@@H](C)O)C(C)C` yielded a pIC50 of 7.00 to 7.60.
In the case of `CC(=O)N[C@@H](CS)C(=O)N[C@@H](CCC(=O)O)C(=O)N[C@@H](CC(=O)O)C(=O)N[C@@H](Cc1c[nH]c2ccccc12)C(=O)N[C@@H](CCCCN)C(=O)N[C@@H](CS)C(=O)N[C@@H](Cc1ccc(O)cc1)C(=O)N[C@@H](Cc1c[nH]c2ccccc12)C(=O)N[C@@H](Cc1cnc[nH]1)C(=O)N[C@@H](CCCCN)C(=O)N[C@@H](Cc1ccc(O)cc1)C(=O)NCC(N)=O` (Ac-CEDWKCYWHKYG-NH2), the pIC50 was over 6.30.
In the case of `CC1CSC[C@@H](C(=O)N[C@@H](Cc2ccc(O)cc2)C(=O)N[C@@H](Cc2c[nH]c3ccccc23)C(=O)N[C@@H](CCCNC(=N)N)C(=O)N[C@@H](CCC(=O)O)C(=O)N[C@@H](CC(N)=O)C(=O)NCC(=O)NCCOCC(=O)N[C@H](CCCCN)C(N)=O)NC(=O)[C@H](CCC(N)=O)NC(=O)[C@H](Cc2c[nH]c3ccccc23)NC(=O)[C@H](CC(=O)O)NC(=O)[C@H](CCC(N)=O)NC1=O` (stereo partly drawn), the pIC50 was 5.22.
`CC(=O)N[C@@H](CS)C(=O)N[C@@H](CCC(N)=O)C(=O)N[C@H](C(=O)N[C@@H](CC(N)=O)C(=O)N[C@@H](CCC(N)=O)C(=O)N[C@@H](CS)C(=O)N[C@@H](Cc1ccc(O)cc1)C(=O)N[C@@H](Cc1c[nH]c2ccccc12)C(=O)N[C@@H](CCC(C)C)C(=O)N[C@@H](CCC(=O)O)C(=O)N[C@@H](CC(N)=O)C(=O)NCC(N)=O)[C@@H](C)O` (Ac-CQTNQCYW[hLeu]ENG-NH2) gave a pIC50 of under 5.00.
Compound `CC(=O)N[C@@H](CS)C(=O)N[C@@H](C)C(=O)N[C@@H](CC(=O)O)C(=O)N[C@@H](Cc1c[nH]c2ccccc12)C(=O)N[C@H](C(=O)N[C@@H](CS)C(=O)N[C@@H](Cc1ccc(O)cc1)C(=O)N[C@@H](Cc1cccc2ccccc12)C(=O)N[C@@H](Cc1cnc[nH]1)C(=O)N[C@H](C(=O)N[C@@H](Cc1ccccc1)C(=O)NC(C)(C)C(N)=O)[C@@H](C)O)C(C)C` has a pIC50 of under 6.00.
`CC(=O)N[C@@H](CS)C(=O)N[C@@H](C)C(=O)N[C@@H](CC(=O)O)C(=O)N[C@@H](Cc1c[nH]c2ccccc12)C(=O)N[C@H](C(=O)N[C@@H](CS)C(=O)N[C@@H](Cc1ccc(O)cc1)C(=O)N[C@@H](Cc1ccc(C(N)=O)cc1)C(=O)N[C@@H](CCCN)C(=O)N[C@@H](CN)C(=O)N[C@@H](Cc1ccccc1)C(=O)NCC(=O)NCCOCC(=O)N[C@H](CCCCN)C(N)=O)C(C)C` gave a pIC50 of 5.22.
`CC(C)[C@H](NC(=O)[C@H](Cc1c[nH]c2ccccc12)NC(=O)[C@H](CC(=O)O)NC(=O)[C@H](C)NC(=O)[C@@H](N)CS)C(=O)N[C@@H](CS)C(=O)N[C@@H](Cc1ccc(O)cc1)C(=O)N[C@@H](Cc1cccc2ccccc12)C(=O)N[C@@H](Cc1cnc[nH]1)C(=O)N[C@H](C(=O)N(C)[C@@H](Cc1ccccc1)C(N)=O)[C@@H](C)O` showed a pIC50 of under 6.00.
Compound `CC(=O)N[C@@H](CS)C(=O)N[C@@H](C)C(=O)N[C@@H](CC(=O)O)C(=O)N[C@@H](Cc1c[nH]c2ccccc12)C(=O)N[C@@H](CCCCNC(=O)COCC(=O)NCCCC[C@H](NC(=O)[C@H](Cc1c[nH]c2ccccc12)NC(=O)[C@H](CC(=O)O)NC(=O)[C@H](C)NC(=O)[C@H](CS)NC(C)=O)C(=O)N[C@@H](CS)C(=O)N[C@@H](Cc1ccc(O)cc1)C(=O)N[C@@H](Cc1c[nH]c2ccccc12)C(=O)N[C@@H](Cc1cnc[nH]1)C(=O)N[C@H](C(=O)N[C@@H](Cc1ccccc1)C(=O)NCC(=O)O)[C@@H](C)O)C(=O)N[C@@H](CS)C(=O)N[C@@H](Cc1ccc(O)cc1)C(=O)N[C@@H](Cc1c[nH]c2ccccc12)C(=O)N[C@@H](Cc1cnc[nH]1)C(=O)N[C@H](C(=O)N[C@@H](Cc1ccccc1)C(=O)NCC(=O)O)[C@@H](C)O` has a pIC50 of under 5.00.
Compound `CC(=O)N[C@@H](CS)C(=O)N[C@@H](C)C(=O)N[C@@H](CC(=O)O)C(=O)N[C@@H](Cc1c[nH]c2ccccc12)C(=O)N[C@H](C(=O)N[C@@H](CS)C(=O)N[C@@H](Cc1ccc(O)cc1)C(=O)N[C@@H](Cc1c[nH]c2ccccc12)C(=O)N[C@@H](Cc1cnc[nH]1)C(=O)N[C@H](C(=O)N[C@@H](Cc1cnc[nH]1)C(=O)NCC(=O)N[C@@H](CCC(=O)O)C(=O)N[C@@H](CCCNC(=N)N)C(N)=O)[C@@H](C)O)C(C)C` has a pIC50 of over 6.30.
`CC(=O)N[C@@H](CS)C(=O)N[C@@H](C)C(=O)N[C@@H](CC(=O)O)C(=O)N[C@@H](Cc1c[nH]c2ccccc12)C(=O)N[C@H](C(=O)N[C@@H](CS)C(=O)N[C@@H](Cc1ccc(O)cc1)C(=O)N[C@@H](Cc1c[nH]c2ccccc12)C(=O)N[C@@H](Cc1cnc[nH]1)C(=O)N[C@H](C(=O)N[C@@H](Cc1ccccc1)C(=O)NCC(=O)NCCOCC(=O)N[C@H](CCCCN)C(=O)O)[C@@H](C)O)C(C)C` was tested, and the pIC50 was over 6.30.
`CC(=O)NCCCC[C@H](NC(=O)[C@](C)(CCCCN)NC(=O)[C@H](Cc1ccc2ccccc2c1)NC(=O)[C@H](Cc1ccc(O)cc1)NC(=O)[C@@H]1CSCC[C@H](NC(C)=O)C(=O)N[C@@H](CCC(N)=O)C(=O)N[C@@H]([C@@H](C)O)C(=O)N[C@@H](Cc2c[nH]c3ccccc23)C(=O)N[C@@H](CCC(N)=O)C(=O)N1)C(=O)N[C@@H](CC(N)=O)C(=O)NCC(=O)NCC(=O)N[C@@H](CCC(=O)O)C(N)=O` showed a pIC50 of 7.00 to 7.60.
In the case of `C[C@@H](O)[C@H](NC(=O)[C@H](CCCNC(=N)N)NC(=O)[C@@H](N)CS)C(=O)N[C@@H](Cc1c[nH]c2ccccc12)C(=O)N[C@@H](CCC(N)=O)C(=O)N[C@@H](CS)C(=O)N[C@@H](Cc1ccc(O)cc1)C(=O)N[C@@H](Cc1c[nH]c2ccccc12)C(=O)N[C@@H](CCCNC(=N)N)C(=O)N[C@@H](CCCCN)C(=O)N[C@@H](Cc1ccccc1)C(=O)NCC(N)=O` (H-CRTWQCYWRKFG-NH2), the pIC50 was over 6.30.
